Tests used:
Assay in all cases: Test E pre-/postemergence greenhouse test, plant response rating 0-100
Format in all cases: in vivo
corn (Zea mays) = settings: Zea mays, post-emergence, Postemergence, scale 0 to 100
Source text: (§1) Seeds of plant species selected from corn (Zea mays), soybean (Glycine max), velvetleaf (Abutilon theophrasti), lambsquarters (Chenopodium album), wild poinsettia (Euphorbia heterophylla), palmer pigweed (Amaranthus palmeri), waterhemp (common waterhemp, Amaranthus rudis), surinam grass (Brachiaria decumbens), large (Lg) crabgrass (Digitaria sanguinalis), Brazilian crabgrass (Digitaria horizontalis), fall panicum (Panicum dichotomiflorum), giant foxtail (Setaria faberii), green foxtail (Setaria viridis), goosegrass (Eleusine indica), johnsongrass (Sorghum halepense), ragweed (common ragweed, Ambrosia elatior), barnyardgrass (Echinochloa crus-galli), sandbur (southern sandbur, Cenchrus echinatus), arrowleaf sida (Sida rhombifolia), Italian ryegrass (Lolium multiflorum), dayflower (Virginia (VA) dayflower, Commelina virginica), field bindweed (Convolvulus arvensis), morningglory (Ipomoea coccinea), nightshade (eastern black nightshade, Solanum ptycanthum), kochia (Kochia scoparia), yellow nutsedge (Cyperus esculentus), smartweed (ladysthumb smartweed, Polygonum persicaria), cocklebur (common cocklebur, Xanthium strumarium), and hairy beggarticks (Bidens pilosa), were planted into a silt loam soil and treated preemergence with test chemicals formulated in a non-phytotoxic solvent mixture which included a surfactant.
(§2) At the same time, plants from these crop and weed species and also waterhemp_RES1, (ALS & Triazine resistant common waterhemp, Amaranthus rudis), and waterhemp_RES2, (ALS & HPPD resistant common waterhemp, Amaranthus rudis) were planted in pots containing Redi-Earth® planting medium (Scotts Company, 14111 Scottslawn Road, Marysville, Ohio 43041) comprising spaghnum peat moss, vermiculite, wetting agent and starter nutrients were treated with postemergence applications of test chemicals formulated in the same manner. Plants ranged in height from 2 to 18 cm for postemergence treatments (1- to 4-leaf stage).
(§3) Treated plants and controls were maintained in a greenhouse for 14 to 21 days, after which time all species were compared to controls and visually evaluated. Plant response ratings, summarized in Table E, are based on a scale of 0 to 100 where 0 is no effect and 100 is complete control. A dash (-) response means no test result.

[1] = tested on: waterhemp (common waterhemp, Amaranthus rudis); settings: Amaranthus tuberculatus, post-emergence, Postemergence, scale 0 to 100
Source text: as §1, §2, §3

[2] = tested on: dayflower (Virginia (VA) dayflower, Commelina virginica); settings: Commelina virginica, post-emergence, Postemergence, scale 0 to 100
Source text: as §1, §2, §3

[3] = tested on: barnyardgrass (Echinochloa crus-galli); settings: Echinochloa crus-galli, post-emergence, Postemergence, scale 0 to 100
Source text: as §1, §2, §3

[4] = tested on: arrowleaf sida (Sida rhombifolia); settings: Sida rhombifolia, post-emergence, Postemergence
Source text: as §1, §2, §3

[5] = tested on: sandbur (southern sandbur, Cenchrus echinatus); settings: Cenchrus echinatus, post-emergence, Postemergence, scale 0 to 100
Source text: as §1, §2, §3

[6] = tested on: Brazilian crabgrass (Digitaria horizontalis); settings: Digitaria horizontalis, post-emergence, Postemergence, scale 0 to 100, read-out: Plant response rating, Crabgrass, Brazil
Source text: as §1, §2, §3

[7] = tested on: wild poinsettia (Euphorbia heterophylla); settings: Euphorbia heterophylla, post-emergence, read-out: Plant response rating, Poinsettia, Wild
Source text: as §1, §2, §3

[8] = tested on: palmer pigweed (Amaranthus palmeri); settings: Amaranthus palmeri, post-emergence, Postemergence, scale 0 to 100
Source text: as §1, §2, §3

[9] = tested on: Italian ryegrass (Lolium multiflorum); settings: Lolium multiflorum, post-emergence, Postemergence, scale 0 to 100
Source text: as §1, §2, §3

soybean (Glycine max) = settings: Glycine max, post-emergence, Postemergence, scale 0 to 100
Source text: as §1, §2, §3

Q: What does the source list for `CCCn1cc(C(=O)c2ccccc2)c(-c2cc(Cl)cc(Cl)c2)n1` [Compound 61, [3-(3,5-dichlorophenyl)-1-propyl-1H-pyrazol-4-yl]phenylmethanone]?
A: Corn plant response rating (crop injury, 0 = no effect, 100 = complete kill) at 31 g/ha (corn (Zea mays); 31 g ai/ha): 0%; Corn plant response rating (crop injury, 0 = no effect, 100 = complete kill) at 62 g/ha (corn (Zea mays); 62 g ai/ha): 0%; Corn plant response rating (crop injury, 0 = no effect, 100 = complete kill) at 125 g/ha (corn (Zea mays); 125 g ai/ha): 0%; Corn plant response rating (crop injury, 0 = no effect, 100 = complete kill) at 250 g/ha (corn (Zea mays); 250 g ai/ha): 0%; Corn plant response rating (crop injury, 0 = no effect, 100 = complete kill) at 500 g/ha (corn (Zea mays); 500 g ai/ha): 0%; pest or weed control at 31 g/ha ([1]; 31 g ai/ha): 20%; pest or weed control at 62 g/ha ([1]; 62 g ai/ha): 30%; pest or weed control at 125 g/ha ([1]; 125 g ai/ha): 75%; pest or weed control at 250 g/ha ([1]; 250 g ai/ha): 100%; pest or weed control at 31 g/ha ([2]; 31 g ai/ha): 0%; pest or weed control at 62 g/ha ([2]; 62 g ai/ha): 0%; pest or weed control at 125 g/ha ([2]; 125 g ai/ha): 0%; pest or weed control at 250 g/ha ([2]; 250 g ai/ha): 0%; pest or weed control at 500 g/ha ([2]; 500 g ai/ha): 0%; pest or weed control at 31 g/ha ([3]; 31 g ai/ha): 0%; pest or weed control at 62 g/ha ([3]; 62 g ai/ha): 0%; pest or weed control at 125 g/ha ([3]; 125 g ai/ha): 0%; pest or weed control at 250 g/ha ([3]; 250 g ai/ha): 10%; pest or weed control at 500 g/ha ([3]; 500 g ai/ha): 20%; pest or weed control at 31 g/ha ([4]; 31 g ai/ha, scale 0 to 100): 30%; pest or weed control at 62 g/ha ([4]; 62 g ai/ha, scale 0 to 100): 40%; pest or weed control at 125 g/ha ([4]; 125 g ai/ha, scale 0 to 100): 40%; pest or weed control at 250 g/ha ([4]; 250 g ai/ha, scale 0 to 100): 60%; pest or weed control at 500 g/ha ([4]; 500 g ai/ha, scale 0 to 100 (0 no effect, 100 complete control)): 70%; pest or weed control at 31 g/ha ([5]; 31 g ai/ha): 0%; pest or weed control at 62 g/ha ([5]; 62 g ai/ha): 0%; pest or weed control at 125 g/ha ([5]; 125 g ai/ha): 0%; pest or weed control at 250 g/ha ([5]; 250 g ai/ha): 0%; pest or weed control at 500 g/ha ([5]; 500 g ai/ha): 0%; pest or weed control at 31 g/ha ([6]; 31 g ai/ha): 0%; pest or weed control at 62 g/ha ([6]; 62 g ai/ha): 0%; pest or weed control at 125 g/ha ([6]; 125 g ai/ha): 0%; pest or weed control at 250 g/ha ([6]; 250 g ai/ha): 0%; pest or weed control at 500 g/ha ([6]; 500 g ai/ha): 0%; pest or weed control at 31 g/ha [7]: 0%; pest or weed control at 62 g/ha [7]: 0%; pest or weed control at 125 g/ha [7]: 0%; pest or weed control at 250 g/ha [7]: 10%; pest or weed control at 500 g/ha [7]: 30%; pest or weed control at 31 g/ha ([8]; 31 g ai/ha): 50%; pest or weed control at 62 g/ha ([8]; 62 g ai/ha): 60%; pest or weed control at 125 g/ha ([8]; 125 g ai/ha): 60%; pest or weed control at 250 g/ha ([8]; 250 g ai/ha): 80%; pest or weed control at 500 g/ha ([8]; 500 g ai/ha): 95%; pest or weed control at 31 g/ha ([9]; 31 g ai/ha): 0%; pest or weed control at 62 g/ha ([9]; 62 g ai/ha): 0%; pest or weed control at 125 g/ha ([9]; 125 g ai/ha): 0%; pest or weed control at 250 g/ha ([9]; 250 g ai/ha): 0%; pest or weed control at 500 g/ha ([9]; 500 g ai/ha): 0%; plant injury at 31 g/ha (soybean (Glycine max); 31 g ai/ha): 0%; plant injury at 62 g/ha (soybean (Glycine max); 62 g ai/ha): 0%; plant injury at 125 g/ha (soybean (Glycine max); 125 g ai/ha): 0%; plant injury at 250 g/ha (soybean (Glycine max); 250 g ai/ha): 0%; plant injury at 500 g/ha (soybean (Glycine max); 500 g ai/ha): 10%
